Common to all, as to assay: DTP human tumour cell line panel, 48 h
Experiment [1] has as its system BT-549 breast.
Experiment [2] concerns K-562 leukemia.
In experiment [3] the test system is LOX IMVI melanoma.
Experiment [4] concerns M14 melanoma.
Experiment [5] deals with MALME-3M melanoma.
Experiment [6] deals with MDA-MB-435.
The subject of experiment [7] is OVCAR-8 ovarian.
In experiment [8] the test system is SK-MEL-2 melanoma.
For experiment [9], the system named is SNB-75 CNS.
Experiment [10] has as its system RPMI-8226 leukemia.

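Results reflect a 48-hour exposure of cells in 96-well plates to compound at five concentrations. The concentration for 50% growth inhibition is given as GI50. TGI: concentration producing complete growth inhibition.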

As for `CC(C)(C)OC(=O)NCC(=O)NC1C/C(=N\O)c2sccc21` (stereo not drawn), the concentration for total growth inhibition (TGI) in experiment [1], in experiment [2], in [3], in [4], in experiment [5] and in experiment [6] was above 100 µM each time. Further, the concentration for total growth inhibition (TGI) in experiment [7], in [8] and in [9] was above 100 µM in each case.

Turning to `CC(=O)c1ccc(N2CCN(C3=CC(=O)c4c(O)ccc(O)c4C3=O)CC2)cc1`, the total growth inhibition concentration (TGI) in experiment [2] is above 100 µM; in experiment [4], above 100 µM; in experiment [5], above 100 µM; in [7], above 100 µM; in [10] it was above 100 µM; in experiment [9], 61.7 µM.

Take `COc1ccc2c(c1)CC1Cc3ccccc3CCN1C2` (stereo not drawn): the total growth inhibition concentration (TGI) in experiment [1] was above 100 µM; in experiment [2], above 100 µM; in experiment [3] it was 51.8 µM; in [4], above 100 µM; in experiment [5], above 100 µM; in experiment [6], above 100 µM. The total growth inhibition concentration (TGI) in experiment [7] was above 100 µM; in experiment [10], 92.3 µM; in experiment [8], above 100 µM; in [9] it was above 100 µM.

With `CCNc1ncnc2c1nnn2CC`, the TGI in [2], in [3], in experiment [4], in [5], in [6] and in experiment [7] was above 100 µM in each case. Besides, the TGI in experiment [10], in experiment [8] and in experiment [9] was above 100 µM in each case.

For `CN(/N=N/c1nc[nH]c1C(N)=O)C1CCCCC1`, the TGI in experiment [3], in [4], in [5], in experiment [7], in [10] and in experiment [8] was above 100 µM in each case. In experiment [9], this compound came in with a TGI above 100 µM.

Regarding `CNC(=S)N/N=C(\C)c1nc2ncccc2[nH]1`, the total growth inhibition concentration (TGI) in experiment [1] is 99.5 µM; in experiment [2], above 100 µM; in experiment [3], above 100 µM; in experiment [4], above 100 µM; in experiment [5], above 100 µM; in [6], above 100 µM. Moreover, the TGI in experiment [7], in experiment [10], in experiment [8] and in experiment [9] was above 100 µM throughout.

In the case of `CCC(=O)NC(OCC1(CC)COC1)(C(F)(F)F)C(F)(F)F`, the TGI in [1], in [2], in [3], in [4], in experiment [5] and in experiment [6] was above 100 µM each time. The concentration for total growth inhibition (TGI) in [10], in experiment [8] and in experiment [9] was above 100 µM each time.

Take `COc1ccc2c(c1OC)C(=O)O[C@@H]2[C@H]1c2cc3c(cc2CCN1C)OCO3`: the TGI in [1], in [2], in experiment [3], in experiment [4], in [6] and in [7] was above 100 µM each time. In addition, the concentration for total growth inhibition (TGI) in [10], in [8] and in experiment [9] was above 100 µM in each case.

`COC(=O)C1=C(C)N(NC(=O)c2ccccc2)C2(O)CCCC(=O)C12C` (stereo not drawn): the total growth inhibition concentration (TGI) in experiment [3], in experiment [4], in experiment [5], in experiment [7], in [10] and in experiment [8] was above 100 µM each time. This compound also displayed a TGI in experiment [9] above 100 µM.

Regarding `COc1cc(OC)cc(-c2n/c(=C\c3c(O)[nH]c4ccc(Cl)cc34)cc3c2=Nc2ccccc2-3)c1`, the GI50 in experiment [1] is 3 µM; in [2] it was 2.72 µM; in [3], 1.92 µM; in experiment [4], 4.01 µM; in experiment [5], 21.6 µM; in experiment [6], 14 µM. For the same compound, the GI50 in experiment [7] is 3.51 µM; in experiment [10] it was 16.3 µM; in experiment [8] it was 20.8 µM; in [9], 16.3 µM. For the same compound, the total growth inhibition concentration (TGI) in experiment [1] came to 9.75 µM; in experiment [2] it was 6.29 µM; in experiment [3] it was 4.34 µM; in experiment [4], 13.7 µM; in [5] it was 44.7 µM; in experiment [6], 35.4 µM. In addition, the TGI is 15.5 µM in experiment [7], above 100 µM in [10], 43.4 µM in [8] and 39.6 µM in experiment [9].

As to `C=CCC1(CC)C(=O)NC(=O)NC1=O`, the TGI in [2], in experiment [3], in [4], in experiment [5], in experiment [7] and in experiment [10] was above 100 µM in each case. The concentration for total growth inhibition (TGI) in experiment [9] is above 100 µM.

Values taken from PubChem BioAssay (NCI).
